Reference: patent US5807721A, “Compound FO-1289, process of production with aspergillus and strain” (The Kitasato Institute, priority 1992, dated 1998)

Target: rat acyl CoA cholesterol acyltransferase
Assay: Inhibitory action on rat acyl CoA cholesterol acyltransferase (rat liver microsome crude enzyme, [1-14C]oleoyl-CoA)
Assay type: biochemical
Conditions: rat liver microsome fraction, pH 7.4, 37° C., 30 minutes, 30 μM oleoyl-CoA, 30 μM cholesterol; read-out: IC50 (50% inhibition concentration on the enzyme)
Method: An inhibitory action of the FO-1289 substance for acyl CoA cholesterol acyltransferase is tested according to the method of Kyoda et al. (J. Antibiotics, 44: 136 1991). A crude enzyme prepared from rat liver microsome fraction is added in the 100 mM phosphate buffer solution (pH 7.4) […] containing 300 μM bovine serum albumin. 30 μM (1-^14 C ) oleoyl-CoA (0.02 μCi) and 30 μM cholesterol (solubilized with 1/30 w/w Triton WR-1339) and incubaatd at 37° C. for 30 minutes. Total lipid is extracted with a mixture of chloroform-methanol (2:1), then each lipid is separated by thin layer chromatography (Kiesel gel GF254, developer:petroleum ether--diethyl ether--acetic acid=90:10:1). Radioactivity incorporated in the cholesterol ester fraction is analysed by RI scanner (Ambis Corp.) to assay an activity of acyl CoA cholesterol acyltransferase.

Structure (SMILES)	IC50 [nM]
CC(=O)OCC1(C)C(OC(C)=O)CCC2(C)C1CC(OC(C)=O)C1(C)Oc3cc(-c4cccnc4)oc(=O)c3C(O)C21 (stereo not shown) [FO-1289A]	40
CCC(=O)OCC1(C)C(OC(C)=O)CCC2(C)C1CC(OC(C)=O)C1(C)Oc3cc(-c4cccnc4)oc(=O)c3C(O)C21 (stereo not shown) [FO-1289B]	100
CCC(=O)OC1CC2C(C)(COC(C)=O)C(OC(C)=O)CCC2(C)C2C(O)c3c(cc(-c4cccnc4)oc3=O)OC12C (stereo not shown) [FO-1289C]	30
CCC(=O)OC1CCC2(C)C(CC(OC(C)=O)C3(C)Oc4cc(-c5cccnc5)oc(=O)c4C(O)C23)C1(C)COC(C)=O (stereo not shown) [FO-1289D]	150
